{"source": "patent US20220387375A1", "about": "“TRPV1 ACTIVATION-MODULATING COMPLEX MIXTURES OF CANNABINOIDS AND/OR TERPENES” (GBS Global Biopharma, Inc., priority 2018, published 2022)", "key": {"[1]": {"biological_target": "T1, TRPV1 (Rattus norvegicus, UniProt O35433)", "T1 construct": "FLAG; expressed in transfected cells", "T1 sequence (O35433 whole entry)": "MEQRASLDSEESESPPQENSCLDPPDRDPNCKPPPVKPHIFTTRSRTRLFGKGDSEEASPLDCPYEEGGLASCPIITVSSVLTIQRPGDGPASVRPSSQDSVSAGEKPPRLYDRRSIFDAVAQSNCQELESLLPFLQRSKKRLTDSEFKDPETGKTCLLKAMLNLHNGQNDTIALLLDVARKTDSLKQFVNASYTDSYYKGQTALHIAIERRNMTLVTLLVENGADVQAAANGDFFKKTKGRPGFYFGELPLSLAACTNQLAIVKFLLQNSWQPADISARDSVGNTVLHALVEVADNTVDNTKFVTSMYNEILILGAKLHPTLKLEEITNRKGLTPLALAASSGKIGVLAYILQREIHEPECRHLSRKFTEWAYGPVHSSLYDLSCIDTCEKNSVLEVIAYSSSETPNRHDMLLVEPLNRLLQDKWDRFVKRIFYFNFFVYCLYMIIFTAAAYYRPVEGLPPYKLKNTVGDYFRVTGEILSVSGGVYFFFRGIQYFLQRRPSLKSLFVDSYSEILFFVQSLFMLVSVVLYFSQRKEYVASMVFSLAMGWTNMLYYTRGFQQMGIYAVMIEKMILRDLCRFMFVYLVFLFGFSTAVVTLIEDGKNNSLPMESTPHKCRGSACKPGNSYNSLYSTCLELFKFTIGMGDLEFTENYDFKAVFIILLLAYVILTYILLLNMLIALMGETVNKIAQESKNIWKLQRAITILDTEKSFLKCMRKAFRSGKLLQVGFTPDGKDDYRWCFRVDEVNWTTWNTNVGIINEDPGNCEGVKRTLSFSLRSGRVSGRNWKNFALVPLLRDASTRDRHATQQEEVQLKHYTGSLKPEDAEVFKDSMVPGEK", "assay": "Bulk calcium assay (Fluo-4) in HEK-TRPV1 overexpressing cells", "format": "cell-based", "details": "for TRPV1-mediated calcium influx compared to vehicle: terpene 10 μM, vehicle subtracted (FIG. 14)", "experimental": "Cells were washed and incubated with 0.2 micromolar Fluo-4 for 30 minutes at 37° C. in a standard modified Ringer's solution of the following composition (in mM): NaCl 145, KCl 2.8, CsCl 10, CaCl2 10, MgCl2 2, glucose 10, Hepes·NaOH 10, pH 7.4, 330 mOsm. Cells were transferred to 96-well plates at 50,000 cells/well and stimulated as indicated. Calcium signals were acquired using a Flexstation 3 (Molecular Devices, Sunnydale, USA). Data was analyzed using SoftMax® Pro 5 (Molecular Devices). Where indicated, nomically calcium-free external conditions were achieved by the preparation of 0 mM CaCl2 Ringer solution containing 1 mM EGTA.\nThe cell culture system described in U.S. patent application Ser. No. 15/986,316 was used to test the TRPV1-mediated calcium response to various terpenes. The HEK293 cell line was stably transfected with the pcDNA6TR (Invitrogen, CA) plasmid (encoding the tetracycline-sensitive TREx repressor protein), and was maintained in DMEM+10% fetal bovine serum (inactivated at 55° C. for 1 h)+2 mM glutamine in humidified 5% CO2 atmosphere at 37° C. Selection pressure on the TRex 293 cells was maintained by continuous culture in 10 μg/ml Blasticidin (Sigma, St Louis, Mo.).\nFor production of TRex HEK293 cells with inducible expression of TRPV1, parental cells were electroporated with the rat TRPV1 cDNA in the pcDNA4TO vector and clonal cell lines were selected by limiting dilution in the presence of 400 μg/ml zeocin (Invitrogen, CA). TRPV1 expression was induced using 1 μg/ml tetracycline for 16 h at 37° C. Stable lines were screened for inducible protein expression using anti-FLAG Western blot, and inducible expression was confirmed.\nCalcium responses mediated by TRPV1 were tested by calcium assay in the cell culture system. Cells were washed and incubated with 0.2 μM fluo-4 acetoxymethyl ester (“Fluo-4”) for 30 minutes at 37° C. in a standard modified Ringer's solution of the following composition (in mM): NaCl 145, KCl2.8, CsCl10, CaCl2 10, MgCl2 2, glucose 10, Hepes·NaOH 10, pH 7.4, 330 mOsm. Cells were transferred to 96-well plates at 50,000 cells/well and stimulated as indicated. The terpenes used were alpha-bisabool, alpha-pinene, myrcene, camphene, linalool, ocimene, humulene, beta-caryophyllene, beta-pinene, limonene, and nerolidol. The terpenes were diluted in DMSO and added to the wells to a final concentration of 10 μM. Vehicle (DMSO) alone was run as a negative control and subtracted from the terpene traces. Calcium signals were acquired using a Flexstation 3 (Molecular Devices, Sunnydale, USA). Data was analyzed using SoftMax® Pro 5 (Molecular Devices).\nCalcium responses mediated by TRPA1, TRPM8, TRPV2, and TRPV1 were tested by calcium assay in the cell culture system. Cells were washed and incubated with 0.2 μM fluo-4 acetoxymethyl ester (“Fluo-4”) for 30 minutes at 37° C. in a standard modified Ringer's solution of the following composition (in mM): NaCl 145, KCl 2.8, CsCl 10, CaCl2 10, MgCl2 2, glucose 10, Hepes·NaOH 10, pH 7.4, 330 mOsm. Cells were transferred to 96-well plates at 50,000 cells/well and stimulated with 10 μM myrcene diluted in DMSO. Vehicle (DMSO) was used as a negative control. Vehicle traces were subtracted from the myrcene traces for each cell line.\nAs shown in FIGS. 16A-H, a variety of cannabinoids were capable of initiating Ca^2+ fluxes in HEK-TRPV1 overexpressing cells, except for cannabigerol and cannabinol. Comparative responses to a single dose (10 μM concentration) of a variety of cannabinoids were made in the presence of 1 mM external Ca^2+, which are population-based, or bulk Ca^2+, measurements with each trace representing averaged triplicates of 100,000 cells per sample. […] For each of the cannabinoid compounds, dose responses at the population level were performed. […] The lower limit of detectable calcium responses in this system varied from 10-100 nM (CBDV, CBGA) to 1-10 μM."}, "[2]": {"biological_target": "T1, TRPV1", "assay": "Whole-cell patch clamp of TRPV1 currents in HEK293 cells overexpressing TRPV1 (HEK293-V1)", "format": "cell-based", "details": "for effect of increasing internal calcium (0, 180, 620 nM) on falling phase or inactivation kinetics: 10 μM myrcene, then 1 μM capsaicin; for time course of induced TRPV1 current (sustained or inactivating): cannabinoid at 50, 5 μM myrcene or 1 μM capsaicin; for ion selectivity / state of TRPV1 activation: 10 μM capsaicin", "experimental": "HEK TRexTRPV1 were cultured in DMEM, 10% Fetal Bovine Serum, 2 mM Lglutamine, 10 μg/ml Blasticidin (Calbiochem, San Diego Calif.), 400 μg/ml Zeocin (InvivoGen, San Diego Calif.), where indicated transgene expression was induced using 1 μg/ml Tetracycline for 16-24 hrs. Unless otherwise indicated, basal expression of TRPV1 without induction was sufficient for these studies, and comparisons were made to untransfected HEK where needed. HEKTRex293 over-expressing human TRPV2, human TRPA1 and human TRPM8 were obtained from SB Drug Discovery (Glasgow, Scotland) and cultured as described above. The cannabinoids and terpenes were assayed in HEK cells that have been transfected with the TRPV1 ion channel protein. These cells are called HEK293-V1 cells.\nThis technique is used to study ionic currents from HEK293-V1. The voltage across the cell membrane is controlled and the ionic currents associated with changes in voltage are measured. A micropipette tip is pulled to a few micrometers in diameter followed by heating the tip to produce a smooth surface that assists in forming a high resistance seal with the cell membrane. To obtain this high resistance seal, the micropipette is pressed against a cell membrane and suction is applied. The membrane then fuses onto the glass surface creating a high resistance in the gigaohm range. This makes it possible to isolate electronically the ionic currents measured across the membrane patch or across the entire cell.\nPatch-clamp experiments were performed in the whole-cell configuration at 21-25° C. Patch pipettes had resistances of 2-3 MΩ. Data was acquired with PatchMaster software (HEKA, Lambrecht, Germany), controlling an EPC-9 amplifier. Voltage ramps of 50 ms spanning the voltage range from −100 to 100 mV were delivered from a holding potential of 0 mV at a rate of 0.5 Hz over a period of 500 ms to 180 seconds (3 minutes). Voltages were corrected for a liquid junction potential of 10 mV. Currents were filtered at 2.9 kHz and digitized at 100 μs intervals. Capacitive currents were determined and corrected before each voltage ramp. The development of currents for a given potential was extracted from individual ramp current records by measuring the current amplitudes at voltages of −80 mV and +80 mV. Data were analyzed with FitMaster (HEKA, Lambrecht, Germany), and IgorPro (WaveMetrics, Lake Oswego, Oreg., USA). Where applicable, statistical errors of averaged data are given as mean±s.e.m with n determinations. The activated current amplitudes are analyzed by nA rather than pA/pF. […] Also the cell size selected for patching was in the 9 -12 pF range.\nFor patch-clamp recordings, HEK293 cells were kept in a standard sodium-based external Ringer's solution containing (mM): 140 NaCl, 1 CaCl2, 2 MgCl2, 2.8 KCl, 11 glucose, 10 HEPES-NaOH with a pH of 7.2 and osmolarity of 300 mOsmol. To assess the effects of external Calcium (Ca) on TRPV1 inactivation kinetics, Ca at different levels were tested including 0, 1, and 3 mM. In Experiments with zero external Ca, EGTA 10 mM was added and the Na concentration was lowered to 130 mM to maintain standard osmotic conditions at 300 mOsmol. For rapid external solution application and exchanges we used the SmartSquirt delivery system (Auto-Mate Scientific, San Francisco Calif., USA) that included four cryo tubes allowing for solution exchanges within one patch. This system included a ValveLink TTL interface between the electronic valves and the EPC10 amplifier (HEKA, Lambrecht, Germany). This electronic configuration allowed for programmable solution changes via the PatchMaster software (HEKA, Lambrecht, Germany)."}}, "data": [{"compound": "C=C(C)[C@H]1CC=C(C)CC1", "note": "[limonene]", "values": [{"measurement": "TRPV1-mediated calcium influx compared to vehicle", "setting": "[1]", "result": "little to no calcium influx"}]}, {"compound": "C=CC(C)=CCC=C(C)C", "note": "[ocimene]", "values": [{"measurement": "TRPV1-mediated calcium influx compared to vehicle", "setting": "[1]", "result": "little to no calcium influx"}]}, {"compound": "CC(C)=CCC[C@](C)(O)[C@@H]1CC=C(C)CC1", "note": "[alpha-bisabool]", "values": [{"measurement": "TRPV1-mediated calcium influx compared to vehicle", "setting": "[1]", "result": "little to no calcium influx"}]}, {"compound": "C=C1CCC2CC1C2(C)C", "note": "(stereo not drawn) [beta-pinene]", "values": [{"measurement": "TRPV1-mediated calcium influx compared to vehicle", "setting": "[1]", "result": "little to no calcium influx"}]}, {"compound": "C=CC(C)(O)CCC=C(C)CCC=C(C)C", "note": "(stereo not drawn) [nerolidol]", "values": [{"measurement": "TRPV1-mediated calcium influx compared to vehicle", "setting": "[1]", "result": "brief initial calcium influx"}]}, {"compound": "Oc1cc2c(cc1O)CN(C(=S)NCCc1ccc(Cl)cc1)CCC2", "note": "[Capsazepine, reference compound]", "values": [{"measurement": "effect on capsaicin-induced TRPV1 current", "setting": "[2]; CPZ 10 μM for 30 seconds after 50 nM Capsaicin for 60 seconds", "result": "reduced both the inward and outward currents"}, {"measurement": "effect on capsaicin-activated TRPV1 channel (state 1 and state 2)", "setting": "[2]; CPZ added after 10 μM capsaicin", "result": "rapid TRPV1 channel deactivation"}, {"measurement": "effect on CBD-induced TRPV1 current", "setting": "[2]; CPZ application 30 seconds after CBD 30 μM", "result": "reduced"}]}, {"compound": "C=C1CC/C=C(\\C)CC[C@@H]2[C@@H]1CC2(C)C", "note": "[beta-caryophyllene]", "values": [{"measurement": "TRPV1-mediated calcium influx compared to vehicle", "setting": "[1]", "result": "little to no calcium influx"}]}, {"compound": "C/C1=C\\CC/C(C)=C/CC(C)(C)/C=C/C1", "note": "[humulene]", "values": [{"measurement": "TRPV1-mediated calcium influx compared to vehicle", "setting": "[1]", "result": "little to no calcium influx"}]}, {"compound": "C=C1C2CCC(C2)C1(C)C", "note": "(stereo not drawn) [camphene]", "values": [{"measurement": "TRPV1-mediated calcium influx compared to vehicle", "setting": "[1]", "result": "little to no calcium influx"}]}, {"compound": "C=CC(=C)CCC=C(C)C", "note": "[myrcene, 7-methyl-3-methylideneocta-1,6-diene]", "values": [{"measurement": "inward current induced", "setting": "[2]; 5 μM myrcene, average of 6 independent experiments", "result": "approximately 0.5 nA"}, {"measurement": "effect of increasing internal calcium (0, 180, 620 nM) on falling phase or inactivation kinetics", "setting": "[2]", "result": "minor effect"}, {"measurement": "IV relationship / TRPV1 channel state", "setting": "[2]; 50 μM myrcene (FIG. 10C)", "result": "state 1"}, {"measurement": "IV relationship / TRPV1 channel state", "setting": "[2]; 150 μM myrcene (FIG. 11)", "result": "state 1"}, {"measurement": "time course of induced TRPV1 current (sustained or inactivating)", "setting": "[2]", "result": "rapidly inactivating"}, {"measurement": "current induced", "setting": "[2]; myrcene 5 μM, 10 μM and 150 μM (FIGS. 8A-8C)", "result": "0.5-2.2 nA"}, {"measurement": "activation of cells overexpressing TRPV1 (calcium entry)", "setting": "[1]; 10 μM myrcene", "result": "activated"}, {"measurement": "TRPV1-mediated calcium influx compared to vehicle", "setting": "[1]", "result": "greatest amount of calcium influx"}]}, {"compound": "COc1cc(CNC(=O)CCCC/C=C/C(C)C)ccc1O", "note": "[capsaicin, Capsaicin, reference compound]", "values": [{"measurement": "current induced", "setting": "[2]; 1 μM capsaicin (not shown), comparison to myrcene", "result": "4-10 nA"}, {"measurement": "ion selectivity / state of TRPV1 activation", "setting": "[2]; absence of internal BAPTA and Ca2+", "result": "Ca^2 ion selective TRPV1 activation"}, {"measurement": "ion selectivity / state of TRPV1 activation", "setting": "[2]; presence of internal 10 mM BAPTA and 150 nM Ca2+", "result": "Na^+ ion selective TRPV1 activation"}, {"measurement": "effect of increasing internal calcium (0, 180, 620 nM) on falling phase or inactivation kinetics", "setting": "[2]", "result": "stronger effect"}, {"measurement": "type of TRPV1 current recorded", "setting": "[2]; Capsaicin 50 nM for 60 seconds, Ca 0 internally and externally", "result": "outwardly rectifying TRPV1 current"}, {"measurement": "rectification of current (resulted in rectifying currents or not)", "setting": "[2]; Capsaicin 500 nM", "result": "did not"}, {"measurement": "rectification of current", "setting": "[2]; Capsaicin low (30 nM) and medium (100 nM) doses", "result": "rectifying currents"}, {"measurement": "IV relationship / TRPV1 channel state", "setting": "[2]; after 1 μM capsaicin", "result": "linear due to TRPV1 transitioning to the dilated state (state 2)"}, {"measurement": "time course of induced TRPV1 current (sustained or inactivating)", "setting": "[2]", "result": "sustained"}]}, {"compound": "C=CC(C)(O)CCC=C(C)C", "note": "(stereo not drawn) [linalool]", "values": [{"measurement": "TRPV1-mediated calcium influx compared to vehicle", "setting": "[1]", "result": "little to no calcium influx"}]}, {"compound": "CC1=CCC2CC1C2(C)C", "note": "(stereo not drawn) [alpha-pinene]", "values": [{"measurement": "TRPV1-mediated calcium influx compared to vehicle", "setting": "[1]", "result": "little to no calcium influx"}]}]}
